The source made the active and inactive calls. The calls are words filed in the database; no cut-off is given here.

The results in this text go back to ChEMBL document CHEMBL3576791, “Rational Design of a Novel AMPA Receptor Modulator through a Hybridization Approach” (ACS Med Chem Lett, 2015).

What all share (assay type): cell-based
The target of test [1] is Glutamate receptor 2 (Homo sapiens) (UniProt P42262). Briefly: Modulation of GluA2 flip receptor (unknown origin) transfected in HEK293 cells assessed as deactivation of channel at 100 uM by electrophysiology.
Chain of Glutamate receptor 2 (Homo sapiens) (P42262 whole entry): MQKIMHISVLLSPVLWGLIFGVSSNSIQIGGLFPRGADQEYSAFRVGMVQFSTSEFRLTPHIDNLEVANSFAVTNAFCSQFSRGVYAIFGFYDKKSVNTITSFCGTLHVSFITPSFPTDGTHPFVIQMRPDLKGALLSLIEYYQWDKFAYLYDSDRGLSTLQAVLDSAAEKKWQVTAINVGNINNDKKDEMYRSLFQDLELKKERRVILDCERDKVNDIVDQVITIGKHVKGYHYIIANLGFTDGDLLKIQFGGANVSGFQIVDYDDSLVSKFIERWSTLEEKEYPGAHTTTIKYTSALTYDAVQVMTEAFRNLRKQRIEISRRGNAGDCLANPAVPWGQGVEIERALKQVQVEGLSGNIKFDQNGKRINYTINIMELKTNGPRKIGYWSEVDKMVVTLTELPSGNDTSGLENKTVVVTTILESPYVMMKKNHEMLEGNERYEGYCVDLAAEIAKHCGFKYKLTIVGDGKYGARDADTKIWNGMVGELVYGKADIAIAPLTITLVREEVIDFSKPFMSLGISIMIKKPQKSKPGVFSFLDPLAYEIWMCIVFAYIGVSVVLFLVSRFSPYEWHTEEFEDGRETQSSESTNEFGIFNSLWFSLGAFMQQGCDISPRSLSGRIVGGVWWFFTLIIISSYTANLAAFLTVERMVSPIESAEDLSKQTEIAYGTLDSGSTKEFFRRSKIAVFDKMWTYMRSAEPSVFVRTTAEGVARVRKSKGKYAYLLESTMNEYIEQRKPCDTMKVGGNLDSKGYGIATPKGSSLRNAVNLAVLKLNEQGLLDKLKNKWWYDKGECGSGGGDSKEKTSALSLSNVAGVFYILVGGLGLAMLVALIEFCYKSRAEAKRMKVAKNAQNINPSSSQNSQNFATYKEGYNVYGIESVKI
Test [2] has the same target. Briefly: Modulation of GluA2 flop receptor (unknown origin) transfected in HEK293 cells assessed as deactivation of channel at 100 uM by electrophysiology.
Test [3] shares this target. Briefly: Modulation of GluA2 flip receptor (unknown origin) transfected in HEK293 cells assessed as desensitization measured as increase in steady-state current at 100 uM by electrophysiology.
For test [4] the target is unchanged. Briefly: Modulation of GluA2 flop receptor (unknown origin) transfected in HEK293 cells assessed as desensitization measured as increase in steady-state current at 100 uM by electrophysiology.
For test [5] the target is unchanged. Put plainly: Modulation of GluA2 flip receptor (unknown origin) transfected in HEK293 cells assessed as deactivation of channel at 30 uM by electrophysiology.
For test [6] the target is unchanged. Put plainly: Modulation of GluA2 flop receptor (unknown origin) transfected in HEK293 cells assessed as deactivation of channel at 30 uM by electrophysiology.
Test [7] shares this target. Briefly: Modulation of GluA2 flip receptor (unknown origin) transfected in HEK293 cells assessed as desensitization measured as increase in steady-state current at 30 uM by electrophysiology.
The target is the same in test [8]. Briefly: Modulation of GluA2 flop receptor (unknown origin) transfected in HEK293 cells assessed as desensitization measured as increase in steady-state current at 30 uM by electrophysiology.

As for `NC(=O)c1c(NC(=O)Cn2cc(CO)c(C(F)(F)F)n2)sc2ccccc12`, the result in test [1], in test [2], in test [3] and in test [4] was Active.

Turning to `O=C1c2ccc(-n3cc(CO)c(C(F)(F)F)n3)cc2OC[C@@H]2CCCN12`, the outcome in test [5], in test [6], in test [7] and in test [8] was inactive.

For the compound `O=S1(=O)c2ccc(Cn3cc(CO)c(C(F)(F)F)n3)cc2OC[C@@H]2CCCN21`, the outcome in test [5] and in test [6] was inactive. Moreover, the outcome in test [7] and in test [8] was Active.

As to `O=C1c2ccc(Cn3cc(CO)c(C(F)(F)F)n3)cc2OC[C@@H]2CCCN12`, the outcome in test [5], in test [7] and in test [8] was Active. For the same compound, the outcome in test [6] was inactive.
